Patent US11629171B2, “Beta-hairpin peptidomimetics” (POLYPHOR AG, priority 2017, dated 2023)
Converted amounts (≈) assume the structure as drawn. Where a SMILES comes first, the peptide text is derived from it. Bridges are numbered along the chain shown (N, C = ends). Roman numbers before positions name the chains, in order. [ ]: non-standard residue; d: D form. Tle = CC(C)(C)[C@H](N)C(=O)O; dDab = NCC[C@@H](N)C(=O)O; hSer = N[C@@H](CCO)C(=O)O; Orn = NCCC[C@H](N)C(=O)O; Dab = NCC[C@H](N)C(=O)O; Dap = NC[C@H](N)C(=O)O

Tests used:
Type in all cases: cell-based
[1] = tested on: human red blood cells (hRBC); experiment: Hemolysis; conditions: red cells of human, 1 h, 200
Description: The peptides were tested for their hemolytic activity against human red blood cells (hRBC). Fresh hRBC were washed four times with phosphate buffered saline (PBS) and centrifuged for 10 min at 3000×g. Compounds (200 μg/mL) were incubated with 20% hRBC (v/v) for 1 h at 37° C. and shaking at 300 rpm. A value of 0% and 100% cell lysis, respectively, was determined by incubation of hRBC in the presence of PBS containing 10% water and 2% Triton X-100 in H2O, respectively. The samples were centrifuged, the supernatants were ˜7.5-fold diluted in PBS buffer and the optical densities (OD) were measured at 540 nm and blank corrected. The 100% lysis value (OD540Triton X-100) gave an OD540 of approximately 0.5-1.0.
Percent hemolysis was calculated as follows: (OD540peptide/OD540Triton X-100)×100%.

[2] = tested on: Escherichia coli ATCC 25922; conditions: ATCC 25922
Description: (§1) The in vitro antimicrobial activities of the peptides were determined in 96-well plates (Greiner, polystyrene) by the standard CLSI broth microdilution method (Clinical and Laboratory Standards Institute 2014. Performance standards for antimicrobial susceptibility testing, 24th informational supplement. Approved standard CLSI M100-S24; Clinical and Laboratory Standards Institute, Wayne, Pa.). The following microorganisms were used to determine antibiotic activity of the peptides: Escherichia coli ATCC 25922, Klebsiella pneumoniae SSI #3010^a), Acinetobacter baumannii DSM 30008, Pseudomonas aeruginosa ATCC 27853 and the clinical isolates Escherichia coli 926415^b), Klebsiella pneumoniae 968733^b), Acinetobacter baumannii 872842^b), Enterobacter cloacae 848840^b) and Escherichia coli MCR-1 Af45^c). Before preparation of inocula, Escherichia coli MCR-1 Af45 was subcultured on Mueller-Hinton II (MH-cation adjusted) agar containing 2 μg/mL colistin. ^a) Obtained from Statens Serum Institut (SSI), Copenhagen, Denmark^b) Obtained from International Health Management Associates, Inc. (IHMA Europe Sàrl), Epalinges, Switzerland^c) Obtained from Prof. Patrice Nordmann, University of Fribourg, Fribourg, Switzerland
(§2) Inocula of the microorganisms were diluted into Mueller-Hinton II (MH-cation adjusted) broth and compared with a 0.5 McFarland standard to give appr. 10^6 colony forming units (CFU)/mL. Aliquots (90 μL) of inoculum were added to 10 μL of MH-II broth+P-80 (Polysorbate 80, 0.002% final concentration, v/v) containing the peptide in serial two-fold dilutions. Antimicrobial activities of the peptides were expressed as the minimal inhibitory concentration (MIC) in μg/mL at which no visible growth was observed after 18-20 hours of incubation at 35° C.

[3] = tested on: Klebsiella pneumoniae SSI #3010; conditions: SSI #3010
Description: as §1, §2

[4] = tested on: Pseudomonas aeruginosa ATCC 27853; conditions: ATCC 27853
Description: as §1, §2

[5] = tested on: Acinetobacter baumannii DSM 30008; conditions: DSM 30008
Description: as §1, §2

MIC [2] | MIC [3] | MIC [4] | MIC [5] | SMILES | Hemolysis at 200 μg/mL [1]
0.125 µg/mL (≈ 0.0538 µM) | 0.125 µg/mL (≈ 0.0538 µM) | 0.125 µg/mL (≈ 0.0538 µM) | 0.125 µg/mL (≈ 0.0538 µM) | CC(=O)N[C@@H](CCN)C(=O)N[C@H](C(=O)N[C@@H](CN)C(=O)N[C@@H](Cc1ccc(O)cc1)C(=O)N[C@H]1CSSC[C@@H](C(=O)N[C@H](C(N)=O)C(C)(C)C)NC(=O)[C@H](Cc2c[nH]c3ccccc23)NC(=O)[C@H](CO)NC(=O)[C@@H](CCN)NC(=O)[C@H](CCC(=O)N[C@@H](CCN)C(=O)N[C@H](C(=O)N[C@@H](CN)C(=O)N[C@H]2CCNC(=O)[C@H]([C@@H](C)O)NC(=O)[C@H](CCN)NC(=O)[C@H](CCN)NC(=O)[C@H](CC(C)C)NC(=O)[C@@H](CC(C)C)NC(=O)[C@H](CCN)NC2=O)[C@@H](C)O)NC1=O)C(C)C [Ex. 13] (I: Ac-[Dab]V[Dap]YCE[dDab]SWC[Tle]-NH2 / II: [Dab]T[Dap][Dab][Dab][dL]L[Dab][Dab]T; disulfide I:5-I:10; amide I:6-II:N; lactam II:4-II:C) | <1%
0.25 µg/mL (≈ 0.103 µM) | 0.5 µg/mL (≈ 0.205 µM) | 1 µg/mL (≈ 0.41 µM) | 1 µg/mL (≈ 0.41 µM) | CC(=O)N[C@H](C(=O)N[C@H](C(=O)N[C@@H](Cc1ccc(O)cc1)C(=O)N[C@@H](CCN)C(=O)N[C@@H](CCC(=O)N[C@@H](CCN)C(=O)N[C@H](C(=O)N[C@@H](CN)C(=O)N[C@H]1CCNC(=O)[C@H]([C@@H](C)O)NC(=O)[C@H](CCN)NC(=O)[C@H](CCN)NC(=O)[C@H](CC(C)C)NC(=O)[C@@H](CC(C)C)NC(=O)[C@H](CCN)NC1=O)[C@@H](C)O)C(=O)N[C@H](CCN)C(=O)N[C@H](C(=O)N[C@@H](Cc1c[nH]c2ccccc12)C(=O)N[C@@H](CCC(=O)O)C(=O)N[C@H](C(=O)N[C@@H](C)C(=O)N[C@@H](CO)C(N)=O)C(C)(C)C)[C@@H](C)O)[C@@H](C)O)C(C)C [Ex. 230] (I: Ac-VTY[Dab]E[dDab]TWE[Tle]AS-NH2 / II: [Dab]T[Dap][Dab][Dab][dL]L[Dab][Dab]T; amide I:5-II:N; lactam II:4-II:C) | <1%
0.25 µg/mL (≈ 0.107 µM) | 0.5 µg/mL (≈ 0.214 µM) | 0.25 µg/mL (≈ 0.107 µM) | 0.5 µg/mL (≈ 0.214 µM) | CC(=O)N[C@@H](CCN)C(=O)N[C@H](C(=O)N[C@@H](CN)C(=O)N[C@@H](Cc1ccc(O)cc1)C(=O)N[C@H]1CSSC[C@@H](C(=O)N[C@H](C(N)=O)C(C)(C)C)NC(=O)[C@H](Cc2c[nH]c3ccccc23)NC(=O)[C@H](CCN)NC(=O)[C@@H](CCN)NC(=O)[C@H](CCC(=O)N[C@@H](CCN)C(=O)N[C@H](C(=O)N[C@@H](CN)C(=O)N[C@H]2CCNC(=O)[C@H]([C@@H](C)O)NC(=O)[C@H](CCN)NC(=O)[C@H](CCN)NC(=O)[C@H](CC(C)C)NC(=O)[C@@H](CC(C)C)NC(=O)[C@H](CCN)NC2=O)[C@@H](C)O)NC1=O)C(C)C [Ex. 14] (I: Ac-[Dab]V[Dap]YCE[dDab][Dab]WC[Tle]-NH2 / II: [Dab]T[Dap][Dab][Dab][dL]L[Dab][Dab]T; disulfide I:5-I:10; amide I:6-II:N; lactam II:4-II:C) | <1%
0.0625 µg/mL (≈ 0.0266 µM) | 0.125 µg/mL (≈ 0.0532 µM) | 0.25 µg/mL (≈ 0.106 µM) | 0.125 µg/mL (≈ 0.0532 µM) | CC(=O)N[C@H](C(=O)N[C@H]1CCCNC(=O)[C@@H](CCCCN)NC(=O)[C@H](C(C)(C)C)NC(=O)[C@H](CO)NC(=O)[C@H](Cc2c[nH]c3ccccc23)NC(=O)[C@H](CCO)NC(=O)[C@@H](CCN)NC(=O)[C@H](CCC(=O)N[C@@H](CCN)C(=O)N[C@H](C(=O)N[C@@H](CN)C(=O)N[C@H]2CCNC(=O)[C@H]([C@@H](C)O)NC(=O)[C@H](CCN)NC(=O)[C@H](CCN)NC(=O)[C@H](CC(C)C)NC(=O)[C@@H](CC(C)C)NC(=O)[C@H](CCN)NC2=O)[C@@H](C)O)NC(=O)[C@H](CO)NC(=O)[C@H](Cc2ccc(O)cc2)NC1=O)C(C)C [Ex. 30] (I: Ac-V[Orn]YSE[dDab][hSer]WS[Tle][dK] / II: [Dab]T[Dap][Dab][Dab][dL]L[Dab][Dab]T; lactam I:2-I:C, II:4-II:C; amide I:5-II:N) | <1%
